Tested on: cancer-related miRNAs
Assay: miRNA expression microarray (SurePrint G3 Human miRNA Microarray Rel.16.0)
Conditions: logarithmic (log2) value of quotient vs control
Method: Total RNA was prepared from each of six induced malignant stem cells, one induced non-malignant stem cell, and one induced pluripotent stem cell as mentioned above, and the prepared total RNAs were used in Agilent SurePrint G3 Human miRNA Microarray Rel.16.0 to detect abnormal expression (increased or reduced/lost expression) of non-coding RNAs such as endogenous cancer-related microRNAs in the induced malignant stem cells.
Complete Labeling Reagent and Hyb Kit in accordance with the Agilent protocol. To be specific, each sample total RNA (100 ng) was dephosphorylated with Calf Intestine Alkaline Phosphatase (CIP), and the RNA molecule on its 3′ terminal side was labeled with a cyanine 3-cytidine bisphosphate (pCp-Cy3) molecule using T4 RNA Ligase.
The RNA samples labeled in (14-2-3) were hybridized with SurePrint G3 Human miRNA Microarray Rel.16.0 using Agilent miRNA Complete Labeling Reagent and Hyb Kit. To be specific, each of the labeled RNAs was added to a hybridization buffer and allowed to hybridize on SurePrint G3 Human miRNA Microarray Rel.16.0 for 20 hours. After washing, the DNA microarray image was scanned by Agilent Microarray Scanner, and fluorescence signals from the spots were digitized by Feature Extraction Software (v.10.7.3.1).
The miRNAs were annotated using miRBase Release 18, and hybridization was performed onto a microarray chip with the probes designed for the miRNAs shown in the following table (refer to Table 31 below).
In this analysis, the normalized value of the digital data for the hybridization of a subject cell (induced malignant stem cell) sample was divided by the normalized value from the digital data for the hybridization of a control cell sample and the quotient was used as a measure of variation in expression. Probes for which the quotients deviated from 1 (i.e., log21=0) were considered to indicate a variation in expression; those showing quotients greater than 2 (log22=1) or smaller than 0.5 (log20.5=−1) were selected. For each of the comparisons shown below, the genes shown in the tyrosine kinase list and those shown in the cancer drug targets list were analyzed to make respective lists of the genes showing quotients greater than 2 (log22=1) or smaller than 0.5 (log20.5=−1), as compared with the quotient for the control (taken as 1). The analysis was performed using GeneSpring 12.1.
The Normalized column represents a variation in expression in logarithmic values.

Substance	Normalized (variation in microRNA expression, subject cell / control cell) ([Ngc1_7]vs [Nib2_17])	Normalized (variation in microRNA expression, subject cell / control cell) ([cc4_c]vs [Nfb2_17])	Normalized (variation in microRNA expression, subject cell / control cell) ([gc1_6]vs [Ngc1_7])	Normalized (variation in microRNA expression, subject cell / control cell) ([gc2_1]vs [Nfb2_17])	Normalized (variation in microRNA expression, subject cell / control cell) ([gc2_5]vs [Nfb2_17])	Normalized (variation in microRNA expression, subject cell / control cell) ([gc2_10]vs +Nfb2_17])	Normalized (variation in microRNA expression, subject cell / control cell) ([gcl_6]vs [Nfb2_17])
hSA-lEt-7f-5p (AACTATACAATCTACTACCTC; chemistry not given here)	2.259	–	–	–	–	–	–
hsa-1et-7c (AACCATACAACCTACTACC; chemistry not given here)	–	4.789	–	–	–	–	–
hsa-let-7a-5p (AACTATACAACCTACTACCT; chemistry not given here)	1.941	5.026	−1.09	−1.233	−1.334	–	–
hsa-let-7b-5p (AACCACACAACCTACTACC; chemistry not given here)	–	–	−1.937	–	–	–	–
hsa-let-7c (AACCATACAACCTACTACC; chemistry not given here)	2.65	–	−1.801	–	–	–	–
hsa-let-7d-5p (AACTATGCAACCTACTACC; chemistry not given here)	–	–	−1.545	–	–	–	–
hsa-let-7e-5p (AACTATACAACCTCCTACC; chemistry not given here)	3.356	4.793	−2.684	1.601	–	2.18	–
hsa-let-7f-5p (AACTATACAATCTACTACCTC; chemistry not given here)	–	5.523	−1.421	–	–	–	–
hsa-let-7g-5p (AACTGTACAAACTACTACCTC; chemistry not given here)	–	–	−1.935	–	–	–	–
hsa-let-7i-5p (AACAGCACAAACTACTACCTC; chemistry not given here)	2.747	4.054	−1.307	–	–	–	1.44
hsa-miR-7-5p (ACAACAAAATCACTAGTCTTCC; chemistry not given here)	–	2.213	–	–	–	–	–
hsa-miR-15a-5p (CACAAACCATTATGTGCTGCT; chemistry not given here)	–	1.163	–	–	–	–	–
hsa-miR-16-5p (CGCCAATATTTACGTGCTG; chemistry not given here)	–	–	–	−5.228	−4.816	−4.956	–
hsa-miR-17-5p (CTACCTGCACTGTAAGC; chemistry not given here)	–	–	–	−3.19	−3.466	–	–
hsa-miR-18a-5p (CTATCTGCACTAGATGCA; chemistry not given here)	–	−1.44	–	–	–	–	–
hsa-miR-20a-5p (CTACCTGCACTATAAGCAC; chemistry not given here)	–	–	–	−4.784	−4.951	−5.12	–
hsa-miR-20b-5p (CTACCTGCACTATGAGCAC; chemistry not given here)	–	−3.293	–	−3.152	−3.269	−3.502	–

Substance	Normalized (variation in microRNA expression, subject cell / control cell) ([Ngc1_7]vs [Nib2_17])	Normalized (variation in microRNA expression, subject cell / control cell) ([cc4_c]vs [Nfb2_17])	Normalized (variation in microRNA expression, subject cell / control cell) ([gc1_6]vs [Ngc1_7])	Normalized (variation in microRNA expression, subject cell / control cell) ([gc2_1]vs [Nfb2_17])	Normalized (variation in microRNA expression, subject cell / control cell) ([gc2_5]vs [Nfb2_17])	Normalized (variation in microRNA expression, subject cell / control cell) ([gc2_10]vs +Nfb2_17])	Normalized (variation in microRNA expression, subject cell / control cell) ([gcl_6]vs [Nfb2_17])
hsa-miR-21-5p (TCAACATCAGTCTGATAAGC; chemistry not given here)	1.136	2.904	–	−6.311	−6.38	−5.844	–
hsa-miR-23b-3p (GGTAATCCCTGGCAATG; chemistry not given here)	1.154	3.268	−1.014	–	–	–	–
hsa-miR-25-3p (TCAGACCGAGACAAGTGC; chemistry not given here)	–	–	–	−1.899	−1.478	−1.515	–
hsa-miR-27a-3p (GCGGAACTTAGCCACTG; chemistry not given here)	1.084	3.755	−1.047	–	–	–	–
hsa-miR-27b-3p (GCAGAACTTAGCCACTGT; chemistry not given here)	–	2.569	–	−2.575	–	−2.297	–
hsa-miR-29a-3p (TAACCGATTTCAGATGGTGC; chemistry not given here)	–	3.972	–	–	–	−3.561	–
hsa-miR-29b-3p (AACACTGATTTCAAATGGTGC; chemistry not given here)	–	4.488	–	–	–	–	–
hsa-miR-34a-5p (ACAACCAGCTAAGACACTGC; chemistry not given here)	–	–	–	−2.608	−2.833	−2.706	–
hsa-miR-34c-5p (GCAATCAGCTAACTACACTG; chemistry not given here)	–	1.308	–	–	–	–	–
hsa-miR-96-5p (AGCAAAAATGTGCTAGTGCCAA; chemistry not given here)	–	1.093	–	–	–	–	–
hsa-miR-124-3p (GGCATTCACCGCGTGC; chemistry not given here)	1.242	–	–	–	–	–	1.88
hsa-miR-125a-5p (TCACAGGTTAAAGGGTCTC; chemistry not given here)	–	1.809	−1.373	–	−1.149	–	–
hsa-miR-125b-5p (TCACAAGTTAGGGTCTC; chemistry not given here)	1.982	2.946	−1.393	−1.425	−2.411	–	–
hsa-miR-130a-3p (ATGCCCTTTTAACATTGCA; chemistry not given here)	–	−4.732	–	−5.267	−5.014	−5.029	–
hsa-miR-134 (CCCCTCTGGTCAA; chemistry not given here)	2.736	–	–	1.853	1.299	2.829	2.883
hsa-miR-183-5p (AGTGAATTCTACCAGTGCCA; chemistry not given here)	–	1.285	–	–	–	−1.886	–
hsa-miR-193b-3p (AGCGGGACTTTGAGGG; chemistry not given here)	–	–	–	–	–	1.098	–

— patent US20140137274A1, “INDUCED MALIGNANT STEM CELLS” (LSIP, LLC, priority 2011, published 2014)
